Like-named read-outs stand apart in the source and are kept apart here.
What was measured:
HSV-2 = HSV-2 inhibition (dose response) plaque assay on Vero cells; type: cell-based; conditions: for EC50: Vero cells, virus pre-incubated with compound 1 h, read-out: HSV-2 EC50 (95% CI)
in vitro [1] = conditions: African green monkey
SARS-CoV-2 (Alpha) = test: SARS-CoV-2 (alpha strain) inhibition plaque assay on Vero E6 cells; type: cell-based; conditions: Severe acute respiratory syndrome coronavirus 2, Vero C1008, read-out: SARS-CoV-2 (Alpha) EC50 (95% CI)
[2] = Vero cell cytotoxicity (MTS assay); type: cell-based; conditions: African green monkey, Vero cells, read-out: CC50 (95% CI), Vero cells
in vitro [3] = conditions: dog
[4] = test system: Influenza A/Netherlands/2009 (H1N1); test: H1N1 inhibition assay on MDCK cells (ICC); type: cell-based; conditions: Influenza A virus, read-out: H1N1 EC50 (95% CI)
[5] = TZM-bl cell cytotoxicity (WST-1); conditions: human
HIV-1 (YU-2) = HIV-1 (YU-2) inhibition assay on TZM-bl cells (luciferase); type: cell-based; conditions: Human immunodeficiency virus 1, read-out: HIV-1 EC50 (95% CI)
SARS-CoV-2 (Omicron) = test: SARS-CoV-2 Omicron dose-response assay on Vero E6 cells; type: cell-based; conditions: Severe acute respiratory syndrome coronavirus 2, Vero C1008, read-out: SARS-CoV-2 (Omicron) EC50 (95% CI)
Vero cells = test: Vero cell cytotoxicity (MTS assay); type: cell-based; conditions: 24 h, read-out: CC50 (95% CI), Vero cells
TZM-bl cells = test: TZM-bl cell cytotoxicity (WST-1); conditions: read-out: CC50 (95% CI), TZM-bl cells; HIV-1 line
Vero E6 cells = conditions: read-out: CC50 (95% CI), Vero E6 cells, SARS-CoV-2 (Alpha) line
SARS-CoV-2 = SARS-CoV-2 Syrian hamster model, intranasal instillation from 12 h; type: in vivo; conditions: B3C9S solution by intranasal instillation, 1.5, 4.5, 6 mg/kg/day from 12 h
Description: Control Control *** Control
80 Placebo 80 Placebo 80 Placebo
Days post infection Days post infection Days post infection
Figure S10. Body weight of Syrian hamsters treated with 1.5mg/kg/day B3C9S (a), 4.5mg/kg/day B3C9S (b), 6mg/kg/day B3C9S (c) by intranasal instillation. 25 female Syrian hamsters were randomly assigned into five groups (control, placebo and three doses of B3C9S), each containing 5 hamsters. At day 0, each hamster was weighed and inoculated intranasally with 100 μl PBS (control) or 100 μl […] SARS-CoV-2 (placebo and B3C9S). Starting from 12 h after the inoculation, the hamsters in the placebo group and the […]
μg/μl) every day, respectively. The body weight of each hamster was measured every 12 h.
The weight measurements of each hamster were normalized by the initial weight and plotted against time post infection. The error bars represent the means ± standard deviations (n = 5). The asterisks represent the p value (*, <0.05; **, <0.01; ***, <0.001) calculated by two-tailed unpaired t test.
(also on this page, place not known: Body weight (%) Body weight (%) Body weight (%))

GFP-EBV B95-8 (EBV) = test: microbe, parasite or virus in culture; type: cell-based, Epstein–Barr virus (EBV); conditions: human gammaherpesvirus 4, read-out: EBV EC50 (95% CI)
[6] = Raji cell cytotoxicity (Zombie NIR flow cytometry); conditions: human
[7] = HEK293T cell cytotoxicity (Zombie NIR flow cytometry); conditions: human
GFP-KSHV (KSHV) = test: microbe, parasite or virus in culture; type: cell-based, Kaposi’s sarcoma-associated herpesvirus (KSHV); conditions: Human gammaherpesvirus 8, HEK-293T, read-out: KSHV EC50 (95% CI)
SARS-CoV-2 Alpha = type: in vivo, Syrian hamster

| Structure (SMILES) | EC50 (HSV-2; Human alphaherpesvirus 2, Vero) | CC50 (in vitro [1]) | EC50 (SARS-CoV-2 (Alpha)) | CC50 at 24 h [2] | EC50 (HIV-1 (YU-2)) | further results |
| --- | --- | --- | --- | --- | --- | --- |
| O=S(=O)(O)OCCCCCCCCCSCC(COS(=O)(=O)O)(COS(=O)(=O)O)CSCCCCCCCCCOS(=O)(=O)O [P2C9S] | 326 µM | > 1300 µM | > 1300 µM |  |  |  |
| O=S(=O)(O)OCCCCCCCCCSCc1cccc(CSCCCCCCCCCOS(=O)(=O)O)c1CSCCCCCCCCCOS(=O)(=O)O [OB3C9S] | 18 µM | 18.4 µM | 1.4 µM | 135 µM |  |  |
| O=S(=O)(O)OCCCCCCCCCCn1cc(COc2cc(OCc3cn(CCCCCCCCCCOS(=O)(=O)O)nn3)cc(OCc3cn(CCCCCCCCCCOS(=O)(=O)O)nn3)c2)nn1 [BTA3C10S] | 17.1 µM | > 929 µM | > 93 µM | > 371 µM | 5.25 µM | CC50 (in vitro [3]): > 930 µM; EC50 [4]: 22.9 µM; CC50 at 6 h [5]: > 93 µM |
| O=S(=O)(O)OCCCCCCSCc1cc(CSCCCCCCOS(=O)(=O)O)cc(CSCCCCCCOS(=O)(=O)O)c1 [B3C6S] | 78.4 µM | > 530 µM | 195 µM | > 530 µM | 5.47 µM | CC50 at 6 h ([5]; TZM-bl cells): > 133 µM |
| O=S(=O)(O)OCCCCCCCCCSCC(COS(=O)(=O)O)(CSCCCCCCCCCOS(=O)(=O)O)CSCCCCCCCCCOS(=O)(=O)O [P3C9S] | 24.4 µM | 413 µM | 10.3 µM | 522 µM |  | EC50 (SARS-CoV-2 (Omicron)): > 1080 µM |
| O=S(=O)(O)OCCCCCCCCCSCc1c(CSCCCCCCCCCOS(=O)(=O)O)c(CSCCCCCCCCCOS(=O)(=O)O)c(CSCCCCCCCCCOS(=O)(=O)O)c(CSCCCCCCCCCOS(=O)(=O)O)c1CSCCCCCCCCCOS(=O)(=O)O [B6C9S] |  |  |  |  |  | CC50 (Vero cells): 42.7 µM; CC50 (TZM-bl cells): 10.5 µM; CC50 (Vero E6 cells): 3.9 µM |
| O=S(=O)(O)OCCCCCCCCCSCc1cc(CSCCCCCCCCCOS(=O)(=O)O)cc(CSCCCCCCCCCOS(=O)(=O)O)c1 [B3C9S] | 7.9 µM | 14.7 µM | 1.1 µM | 331 µM | 6.34 µM | CC50 (in vitro [3]): 16.6 µM; body weight loss of infected hamsters (SARS-CoV-2): reduced the body weight loss; EC50 (HSV-2): 7.92 µM; EC50 (GFP-EBV B95-8 (EBV)): 46.5 µM; EC50 [4]: 5.11 µM; EC50 (SARS-CoV-2 (Omicron)): 1.37 µM; CC50 at 2 days ([6]; Raji cells): > 341 µM; CC50 at 2 days ([7]; HEK293T cells): 162 µM; EC50 (GFP-KSHV (KSHV)): 48.2 µM; CC50 at 6 h ([5]; TZM-bl cells): > 113 µM; efficacy with aerosol treatment compared with B6C11S (SARS-CoV-2 Alpha; hamster, in vivo): less effective; viral titer (viral RNA) in the lungs (SARS-CoV-2 Alpha; hamster, in vivo): significantly decreased the viral titer; viral titer (viral RNA) in the oral swab (SARS-CoV-2 Alpha; hamster, in vivo): significantly reduced; viral titer in oral swab and lung tissues vs untreated (SARS-CoV-2 Alpha; hamster, in vivo): No statistical difference |
| O=S(=O)(O)OCCCCCCCCCCO[C@H]1[C@H](OS(=O)(=O)O)[C@H](OCCCCCCCCCCOS(=O)(=O)O)[C@H](OS(=O)(=O)O)[C@@H](OCCCCCCCCCCOS(=O)(=O)O)[C@@H]1OS(=O)(=O)O [I3C10S] | 163 µM | > 356 µM | 458 µM | > 359 µM |  |  |
| O=S(=O)(O)OCCCCCCCCCSCC(CSCCCCCCCCCOS(=O)(=O)O)(CSCCCCCCCCCOS(=O)(=O)O)CSCCCCCCCCCOS(=O)(=O)O [P4C9S] | 6.5 µM | 4 µM | 0.48 µM | 185 µM | 1.94 µM | EC50 (HSV-2): 6.48 µM; EC50 (GFP-EBV B95-8 (EBV)): 33.9 µM; CC50 at 2 days [6]: > 276 µM; CC50 at 2 days [7]: 122 µM; EC50 (GFP-KSHV (KSHV)): 20.8 µM; CC50 at 6 h [5]: 18.4 µM |
| CCc1c(CSCCCCCCOS(=O)(=O)O)c(CC)c(CSCCCCCCOS(=O)(=O)O)c(CC)c1CSCCCCCCOS(=O)(=O)O [BET3C6S] | 28.5 µM | 451 µM | > 119 µM | > 477 µM | 8.22 µM | CC50 at 6 h [5]: > 119 µM |
| CC(C)(C)[C@H](NC(=O)C(F)(F)F)C(=O)N1C[C@H]2[C@@H]([C@H]1C(=O)N[C@H](C#N)C[C@@H]1CCNC1=O)C2(C)C [nirmatrelvir, reference compound] |  |  |  |  |  | viral RNA levels in oral swab vs untreated (SARS-CoV-2 Alpha; […], nirmatrelvir 250 mg/kg orally, P = 0.0021): significantly lower viral RNA levels; viral RNA copies in lung vs untreated (SARS-CoV-2 Alpha; […], nirmatrelvir 250 mg/kg orally, P = 0.0031): significantly decreased viral RNA copies; infectious viral titer (TCID50) in the lungs vs untreated (SARS-CoV-2 Alpha; […], nirmatrelvir 250 mg/kg orally, P = 0.0066): significantly decreased the viral titer; infectious viral titer (TCID50) in the lungs vs untreated (SARS-CoV-2 Alpha; […], nirmatrelvir 250 mg/kg orally, P = 0.012): significantly decreased the viral titer; infectious viral titer (TCID50) in the lungs vs untreated (SARS-CoV-2 Alpha; […], nirmatrelvir 250 mg/kg orally, P = 0.079): no significant difference; histopathological evaluation of lung tissues (SARS-CoV-2 Alpha; nirmatrelvir 250 mg/kg orally): improved pulmonary conditions; severe lung damage (histopathology categories E and F) (SARS-CoV-2 Alpha; nirmatrelvir 250 mg/kg orally, P = 0.03): reducing severe lung damage |
| O=S(=O)(O)OCCOCCOCCOCCSCc1cc(CSCCOCCOCCOCCOS(=O)(=O)O)cc(CSCCOCCOCCOCCOS(=O)(=O)O)c1 [B3PEG4S] | > 400 µM |  | > 400 µM |  |  | HSV-2 inhibition at 400 μM (HSV-2; 400 μM): No inhibition |
| O=c1n(CCSCCCCCCCCCOS(=O)(=O)O)c(=O)n(CCSCCCCCCCCCOS(=O)(=O)O)c(=O)n1CCSCCCCCCCCCOS(=O)(=O)O [A3C9S] | 20.1 µM | 39.5 µM | 23.1 µM | 221 µM |  |  |
| O=S(=O)(O)OCCCCCCCCCCCSCc1cc(CSCCCCCCCCCCCOS(=O)(=O)O)cc(CSCCCCCCCCCCCOS(=O)(=O)O)c1 [B3C11S] | 26.2 µM | 11.2 µM | 0.84 µM | 384 µM | 6.44 µM | CC50 at 6 h ([5]; TZM-bl cells): > 100 µM |
| CCc1c(CSCCCCCCCCCOS(=O)(=O)O)c(CC)c(CSCCCCCCCCCOS(=O)(=O)O)c(CC)c1CSCCCCCCCCCOS(=O)(=O)O [BET3C9S] | 13.1 µM | 17 µM | 1.1 µM | 81.6 µM | 6.12 µM | EC50 (SARS-CoV-2 (Omicron)): > 104 µM; CC50 at 6 h [5]: 29.7 µM |
